The text below walks through data of patent publication US20250368666A1, “INDAZOLE COMPOUNDS” (TYRA BIOSCIENCES, INC., priority 2022, published 2025).

For one assay, the target named is T1, FGFR1 (Homo sapiens, UniProt P11362).
T1 construct: made in house; host or cells: E. coli (BL21-derived), T7 phage
The assay can be described thus: Kinase binding assay (kinase-tagged T7 phage, affinity beads, qPCR), Kd. Conditions: read-out: FGFR1 (Kd nM). The essentials:
(§1)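 T7 phage displaying each kinase, grown in a BL21-derived E. coli host at 32° C until lysis, competed with test compound for biotinylated ligand immobilised on streptavidin beads. Bead-bound kinase was eluted and quantified by qPCR. Kd came from an 11-point 3-fold dilution series fitted to the Hill equation with slope fixed at −1.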
In general terms: In qPCR the cycle at which signal appears reflects the starting amount.

A further assay deals with T2, FGFR2 (Homo sapiens, UniProt P21802).
T2 construct: made in house; host or cells: E. coli (BL21-derived), T7 phage
The assay is described as above. Conditions: read-out: FGFR2 (Kd nM). The essentials:
as §1

A further assay deals with T3, FGFR3 (Homo sapiens, UniProt P22607).
T3 construct: made in house; host or cells: E. coli (BL21-derived), T7 phage
Described as above. Conditions: read-out: FGFR3 (Kd nM). The essentials: as §1

In another assay the target is T4, FGFR4 (Homo sapiens, UniProt P22455).
T4 construct: made in house; host or cells: E. coli (BL21-derived), T7 phage
The description is as above. Conditions: read-out: FGFR4 (Kd nM). Put shortly: as §1

Assay [1] relates to KATO-III cell line (FGFR2 amplification). The experiment in a line: Cancer cell line cell viability assay (Cell Titer-Glo), 72 hr. It is filed as cell-based. Conditions: Homo sapiens, KATO III. Put shortly: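 Following overnight attachment, each line receives compound in triplicate across nine 4-fold dilutions starting at 3 μM, with DMSO backfill for equal solvent. Luminescence after Cell Titer-Glo 2.0 addition gives percent viability versus DMSO control, fitted by 4-parameter logistic for IC50.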
(ATP-based viability assays read luminescence as a measure of living cells.)

In assay [2] the test system is KG-1 cell line (FGFR 1-fusion). The description is as above. It is filed as cell-based. Conditions: Homo sapiens, KG-1, KG-1 cell line (FGFR1-fusion). The essentials: (§2)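 Cells were seeded at 5,000–20,000 per well, then exposed to a 9-point, 4-fold dilution series from 3 μM top concentration in triplicate at 37° C. Exposure was 120 h for MDA-MB-453 and HuH7 and 72 h for KG-1 and RT112/84. Viability was read as ATP by Cell Titer-Glo 2.0, expressed as % of DMSO control, and fitted by 4-parameter IC50.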

Assay [3] relates to RT112/84 cell line (FGFR3-fusion). The description is as above. The class given is cell-based. The settings on record: Homo sapiens, RT112/84, RT112/84 cell line (FGFR3-fusion). Put shortly: as §2
In assay [4] the test system is HuH7 cell line (FGF19 amplification). The experiment in a line: Cancer cell line cell viability assay (Cell Titer-Glo), 120 hr. The class given is cell-based. Conditions: Homo sapiens, Huh-7. The essentials:
as §2

Another assay addresses T5, FGFR3 (V555M) (Homo sapiens, UniProt P22607, V555M).
T5 construct: made in house; host or cells: E. coli (BL21-derived), T7 phage
The assay can be described thus: Kinase binding assay (kinase-tagged T7 phage, affinity beads, qPCR), Kd. Conditions: V555M mutant; read-out: FGFR3 (V555M) (Kd nM). Put shortly: as §1

T2 sequence (P21802 22-821): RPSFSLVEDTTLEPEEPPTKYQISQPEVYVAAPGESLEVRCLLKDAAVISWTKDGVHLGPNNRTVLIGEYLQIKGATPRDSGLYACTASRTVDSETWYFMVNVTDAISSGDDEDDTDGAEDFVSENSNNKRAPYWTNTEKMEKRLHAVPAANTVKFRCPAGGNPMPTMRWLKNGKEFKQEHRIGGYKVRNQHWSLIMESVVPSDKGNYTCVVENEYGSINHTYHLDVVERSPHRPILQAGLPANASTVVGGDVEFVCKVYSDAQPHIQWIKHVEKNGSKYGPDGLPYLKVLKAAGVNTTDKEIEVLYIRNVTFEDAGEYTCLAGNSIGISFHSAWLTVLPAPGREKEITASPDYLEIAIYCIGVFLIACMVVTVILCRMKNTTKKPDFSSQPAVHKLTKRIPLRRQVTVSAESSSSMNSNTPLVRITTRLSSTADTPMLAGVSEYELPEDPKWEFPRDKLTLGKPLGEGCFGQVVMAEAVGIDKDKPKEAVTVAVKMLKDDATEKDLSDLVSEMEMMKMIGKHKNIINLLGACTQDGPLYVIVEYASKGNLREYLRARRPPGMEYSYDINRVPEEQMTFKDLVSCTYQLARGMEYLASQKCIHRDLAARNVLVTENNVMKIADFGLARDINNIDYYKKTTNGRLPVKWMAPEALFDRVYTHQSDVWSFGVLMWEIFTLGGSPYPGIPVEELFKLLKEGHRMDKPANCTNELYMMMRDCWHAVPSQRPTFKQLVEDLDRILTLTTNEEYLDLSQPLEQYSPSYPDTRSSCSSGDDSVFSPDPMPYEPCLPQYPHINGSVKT
T4 sequence (P22455 22-802): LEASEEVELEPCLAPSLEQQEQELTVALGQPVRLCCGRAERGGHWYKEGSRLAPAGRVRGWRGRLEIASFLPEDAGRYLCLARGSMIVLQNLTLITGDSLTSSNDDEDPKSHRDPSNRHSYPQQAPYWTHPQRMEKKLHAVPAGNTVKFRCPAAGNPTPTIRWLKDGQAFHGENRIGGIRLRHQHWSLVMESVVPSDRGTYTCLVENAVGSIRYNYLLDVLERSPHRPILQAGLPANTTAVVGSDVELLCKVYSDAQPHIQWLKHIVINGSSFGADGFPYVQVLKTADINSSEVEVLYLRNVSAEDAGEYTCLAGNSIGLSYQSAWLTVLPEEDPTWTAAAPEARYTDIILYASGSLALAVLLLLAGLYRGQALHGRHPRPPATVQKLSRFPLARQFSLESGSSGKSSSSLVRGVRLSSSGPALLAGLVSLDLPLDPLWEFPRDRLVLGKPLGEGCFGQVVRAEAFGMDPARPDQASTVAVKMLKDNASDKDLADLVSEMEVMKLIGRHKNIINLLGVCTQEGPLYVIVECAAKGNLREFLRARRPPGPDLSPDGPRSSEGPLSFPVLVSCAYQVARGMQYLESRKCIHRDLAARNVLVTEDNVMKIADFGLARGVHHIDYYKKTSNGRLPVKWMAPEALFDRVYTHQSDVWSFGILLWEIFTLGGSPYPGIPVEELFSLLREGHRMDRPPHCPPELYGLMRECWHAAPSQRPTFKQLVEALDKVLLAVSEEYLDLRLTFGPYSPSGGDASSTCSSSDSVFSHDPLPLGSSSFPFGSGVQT
T3 sequence (P22607 23-806): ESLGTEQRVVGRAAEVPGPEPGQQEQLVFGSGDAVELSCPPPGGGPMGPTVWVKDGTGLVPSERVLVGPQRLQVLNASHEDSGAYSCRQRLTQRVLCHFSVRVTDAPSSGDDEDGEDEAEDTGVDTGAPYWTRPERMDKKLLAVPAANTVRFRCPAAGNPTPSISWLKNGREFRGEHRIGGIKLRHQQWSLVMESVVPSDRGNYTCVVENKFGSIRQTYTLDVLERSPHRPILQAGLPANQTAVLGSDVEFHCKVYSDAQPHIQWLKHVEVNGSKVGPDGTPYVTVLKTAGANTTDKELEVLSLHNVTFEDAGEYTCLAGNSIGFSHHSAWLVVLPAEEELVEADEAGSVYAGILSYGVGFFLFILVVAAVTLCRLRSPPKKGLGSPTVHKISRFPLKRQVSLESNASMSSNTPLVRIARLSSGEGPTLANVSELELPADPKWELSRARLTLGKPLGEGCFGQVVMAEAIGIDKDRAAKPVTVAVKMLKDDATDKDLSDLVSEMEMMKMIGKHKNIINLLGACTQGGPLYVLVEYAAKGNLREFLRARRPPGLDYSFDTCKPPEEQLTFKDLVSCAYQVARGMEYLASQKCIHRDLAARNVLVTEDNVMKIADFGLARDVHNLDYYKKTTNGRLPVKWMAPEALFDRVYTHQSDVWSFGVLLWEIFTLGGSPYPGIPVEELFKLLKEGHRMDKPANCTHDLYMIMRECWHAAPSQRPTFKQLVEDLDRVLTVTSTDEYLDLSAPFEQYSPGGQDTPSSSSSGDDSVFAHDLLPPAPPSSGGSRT
T5 sequence (P22607 23-806 V555M): as the sequence (P22607 23-806) above, with V533M counted along it
T1 sequence (P11362 22-822): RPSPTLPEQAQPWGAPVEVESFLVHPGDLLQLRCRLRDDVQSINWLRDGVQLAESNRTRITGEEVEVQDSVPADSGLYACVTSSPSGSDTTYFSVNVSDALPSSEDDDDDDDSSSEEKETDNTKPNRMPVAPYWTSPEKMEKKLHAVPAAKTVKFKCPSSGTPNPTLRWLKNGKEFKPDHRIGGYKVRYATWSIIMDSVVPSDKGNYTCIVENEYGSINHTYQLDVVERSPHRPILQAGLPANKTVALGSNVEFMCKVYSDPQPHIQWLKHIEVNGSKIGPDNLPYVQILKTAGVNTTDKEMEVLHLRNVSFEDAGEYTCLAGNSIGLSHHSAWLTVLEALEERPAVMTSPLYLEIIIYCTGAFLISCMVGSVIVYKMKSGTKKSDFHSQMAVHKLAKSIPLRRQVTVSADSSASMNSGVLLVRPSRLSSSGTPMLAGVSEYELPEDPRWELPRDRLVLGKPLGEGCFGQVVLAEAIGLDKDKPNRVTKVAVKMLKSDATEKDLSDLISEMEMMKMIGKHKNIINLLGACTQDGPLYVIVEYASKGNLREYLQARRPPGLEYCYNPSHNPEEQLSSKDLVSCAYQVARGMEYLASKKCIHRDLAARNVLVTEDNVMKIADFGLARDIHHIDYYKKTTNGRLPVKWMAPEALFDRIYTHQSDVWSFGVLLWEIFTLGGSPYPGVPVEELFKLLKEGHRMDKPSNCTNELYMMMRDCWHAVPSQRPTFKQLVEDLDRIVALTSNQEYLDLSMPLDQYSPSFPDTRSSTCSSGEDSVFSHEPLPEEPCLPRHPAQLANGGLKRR

Consider `CCC1(N)CN(c2ncc(-c3n[nH]c4cc(OC)c(O[C@H](C)c5c(Cl)cncc5Cl)cc34)cc2C#N)C1` [Example 365, 2-(3-amino-3-ethyl-azetidin-1-yl)-5-[5-[(1R)-1-(3,5-dichloro-4-pyridyl)ethoxy]-6-methoxy-1H-indazol-3-yl]pyridine-3-carbonitrile], for which the Kd on FGFR1, on FGFR2, at FGFR3 and on FGFR4 was 1 to 50 nM in each case. Besides, the 50% inhibitory concentration (IC50) in assay [1] lay within 50 to 200 nM; in [2], 0.1 to 50 nM; in assay [3], 0.1 to 50 nM; in assay [4], 0.1 to 50 nM.

Regarding `COc1cc2[nH]nc(-c3cnc(N4CC(C)(N(C)CC(C)C)C4)c(C#N)c3)c2cc1O[C@H](C)c1c(Cl)cncc1Cl` [Example 343, (R)-5-(5-(1-(3,5-dichloropyridin-4-yl)ethoxy)-6-methoxy-1H-indazol-3-yl)-2-(3-(isobutyl(meth-yl)amino)-3-methylazetidin-1-yl)nicotinonitrile], the Kd lay within 50 to 300 nM on FGFR1, 50 to 300 nM on FGFR2, 1 to 50 nM at FGFR3 and 1 to 50 nM at FGFR4. Further, the concentration for half-maximal inhibition (IC50) in assay [1] is 200 to 1000 nM; in assay [2] it was greater than 1000 nM; in assay [3], 50 to 200 nM; in assay [4], 200 to 1000 nM.

As to `COc1cc2[nH]nc(-c3cnc(N4CC(CC#N)(N(C)C)C4)c(C#N)c3)c2cc1O[C@H](C)c1c(Cl)cncc1Cl` [Example 352, (R)-2-(3-(cyanomethyl)-3-(dimethylamino)-azetidin-1-yl)-5-(5-(1-(3,5-dichloropyridin-4-yl)ethoxy)-6-methoxy-1H-indazol-3-yl)nicotinonitrile], the Kd at FGFR1, on FGFR2, at FGFR3 and at FGFR4 was 1 to 50 nM in each case. Moreover, the IC50 in [1], in assay [2], in assay [3] and in [4] was 0.1 to 50 nM throughout.

Turning to `COc1cc2[nH]nc(-c3cnc(N4CC(N)(C5CCC5)C4)c(C#N)c3)c2cc1O[C@H](C)c1c(Cl)cncc1Cl` [Example 356, (R)-2-(3-amino-3-cyclobutylazetidin-1-yl)-5-(5-(1-(3,5-dichloropyridin-4-yl)ethoxy)-6-methoxy-1H-indazol-3-yl)nicotinonitrile], the Kd at FGFR1, at FGFR2, on FGFR3 and on FGFR4 was 1 to 50 nM throughout. Moreover, the IC50 in assay [1] was 200 to 1000 nM; in assay [2] it was 50 to 200 nM; in assay [3], 0.1 to 50 nM; in assay [4], 0.1 to 50 nM.

Consider `COc1cc2[nH]nc(-c3cnc(N4CC(N)(CC5CC5)C4)c(C#N)c3)c2cc1O[C@H](C)c1c(Cl)cncc1Cl` [Example 359], for which the Kd on FGFR1, on FGFR2, on FGFR3 and on FGFR4 was 1 to 50 nM in each case. Besides, the IC50 in [1] was in the range of 50 to 200 nM; in [2], 50 to 200 nM; in [3] it was 50 to 200 nM; in assay [4], 0.1 to 50 nM.

As to `COc1cc2[nH]nc(-c3cnc(N4CC(CC#N)(NC(C)C)C4)c(C#N)c3)c2cc1O[C@H](C)c1c(Cl)cncc1Cl` [Example 152, (R)-2-(3-(cyanomethyl)-3-(isopropylamino)azetidin-1-yl)-5-(5-(1-(3,5-dichloropyridin-4-yl)ethoxy)-6-methoxy-1H-indazol-3-yl)nicotinonitrile], the Kd at FGFR1, on FGFR2, on FGFR3 and at FGFR4 was 1 to 50 nM each time. For the same compound, the IC50 in assay [1] lay in the range of 50 to 200 nM; in assay [2] it was 200 to 1000 nM; in [3], 0.1 to 50 nM; in [4] it was 0.1 to 50 nM.

With `COc1cc2[nH]nc(-c3cnc(N4CC(N)(CC=C(C)C)C4)c(C#N)c3)c2cc1O[C@H](C)c1c(Cl)cncc1Cl` [Example 363, (R)-2-(3-amino-3-(3-methylbut-2-en-1-yl)azetidin-1-yl)-5-(5-(1-(3,5-dichloropyridin-4-yl)ethoxy)-6-methoxy-1H-indazol-3-yl)nicotinonitrile], the Kd on FGFR1, at FGFR2, at FGFR3 and on FGFR4 was 1 to 50 nM in each case. The IC50 in assay [1] was in the range of 50 to 200 nM; in assay [2] it was 200 to 1000 nM; in assay [3], 0.1 to 50 nM; in [4], 0.1 to 50 nM.

For the compound `COc1cc2[nH]nc(-c3cnc(N4CC(CC#N)(N5CCCC5)C4)c(C#N)c3)c2cc1O[C@H](C)c1c(Cl)cncc1Cl` [Example 354, (R)-2-(3-(cyanomethyl)-3-(pyrrolidin-1-yl)azetidin-1-yl)-5-(5-(1-(3,5-dichloropyridin-4-yl)ethoxy)-6-methoxy-1H-indazol-3-yl)nicotinonitrile], the Kd on FGFR1, at FGFR2, on FGFR3 and at FGFR4 was 1 to 50 nM in each case. The IC50 is 0.1 to 50 nM in [1], 50 to 200 nM in [2], 0.1 to 50 nM in assay [3] and 0.1 to 50 nM in assay [4].

For `COc1cc2[nH]nc(-c3cnc(N4CC(C)(NC(=O)CN(C)C)C4)c(C#N)c3)c2cc1O[C@H](C)c1c(Cl)cncc1Cl` [Example 340, (R)-N-(1-(3-cyano-5-(5-(1-(3,5-dichloropyridin-4-yl)ethoxy)-6-methoxy-1H-indazol-3-yl)pyridin-2-yl)-3-methylazetidin-3-yl)-2-(dimethylamino)-acetamide], the Kd on FGFR1, at FGFR2 and on FGFR4 was 1 to 50 nM each time. Besides, the IC50 in assay [1] lay within 50 to 200 nM; in [2], 50 to 200 nM; in assay [3], 0.1 to 50 nM; in [4], 0.1 to 50 nM.

`CCC1(NC)CN(c2ncc(-c3n[nH]c4cc(OC)c(O[C@H](C)c5c(Cl)cncc5Cl)cc34)cc2C#N)C1` [Example 351, (R)-5-(5-(1-(3,5-Dichloropyridin-4-yl)ethoxy)-6-methoxy-1H-indazol-3-yl)-2-(3-ethyl-3-(methyl-amino)azeti-din-1-yl)nicotinonitrile diHCl]: the Kd at FGFR1, at FGFR2, on FGFR3 and at FGFR4 was 1 to 50 nM each time. Further, the IC50 in assay [1], in assay [2], in [3] and in assay [4] was 0.1 to 50 nM each time.

Take `C[C@@H](Oc1cc2c(-c3cnc(N4CC(C)(NCCO)C4)c(C#N)c3)n[nH]c2cc1F)c1c(Cl)cncc1Cl` [Example 129, (R)-5-(5-(1-(3,5-dichloropyridin-4-yl)ethoxy)-6-fluoro-1H-indazol-3-yl)-2-(3-((2-hydroxyethyl)amino)-3-methylazetidin-1-yl)nicotinonitrile]: the half-inhibitory concentration (IC50) fell in the range of 200 to 1000 nM in assay [1], 200 to 1000 nM in assay [2], 50 to 200 nM in assay [3] and 50 to 200 nM in assay [4].

Take `COc1cc2[nH]nc(-c3cnc(N4CC(C)(NC(C)C)C4)c(C#N)c3)c2cc1O[C@@H](C)c1c(Cl)cncc1Cl` [Example 330, (S)-5-(5-(1-(3,5-dichloropyridin-4-yl)ethoxy)-6-methoxy-1H-indazol-3-yl)-2-(3-(isopropylamino)-3-methylazetidin-1-yl)nicotinonitrile]: the Kd lay in the range of 300 to 1000 nM at FGFR1; 300 to 1000 nM on FGFR2; 50 to 300 nM on FGFR3; 50 to 300 nM on FGFR3 (V555M); 1 to 50 nM on FGFR4. For the same compound, in assay [4], the IC50 fell in the range of 200 to 1000 nM.

In the case of `COc1cc2[nH]nc(-c3cnc(N4CC(C)(NCC(C)(C)O)C4)c(C#N)c3)c2cc1O[C@@H](C)c1c(Cl)cncc1Cl` [Example 331, (S)-5-(5-(1-(3,5-dichloropyridin-4-yl)ethoxy)-6-methoxy-1H-indazol-3-yl)-2-(3-((2-hydroxy-2-methylpro-pyl)amino)-3-methylazetidin-1-yl)nicotinonitrile], the Kd at FGFR1 lay in the range of 300 to 1000 nM; on FGFR2, 300 to 1000 nM; on FGFR3 it was 50 to 300 nM; on FGFR3 (V555M), 50 to 300 nM; at FGFR4, 1 to 50 nM. The IC50 in [4] is 200 to 1000 nM.

In the case of `COc1cc2[nH]nc(-c3cnc(N4CC(C)(CS(C)(=O)=O)C4)c(C#N)c3)c2cc1O[C@@H](C)c1c(Cl)cncc1Cl` [Example 332, (S)-5-(5-(1-(3,5-dichloropyridin-4-yl)ethoxy)-6-methoxy-1H-indazol-3-yl)-2-(3-methyl-3-((methyl-sulfonyl)meth-yl)azetidin-1-yl)nicotinonitrile], the Kd at FGFR1 is greater than 1000 nM; on FGFR2, greater than 1000 nM; at FGFR3, 300 to 1000 nM; on FGFR3 (V555M), 300 to 1000 nM; at FGFR4 it was 1 to 50 nM. This compound also yielded an IC50 in assay [4] of 200 to 1000 nM.

The term Kd denotes the constant that tells how readily two partners part at equilibrium. A word on the IC50: it is the concentration that inhibits the measured activity by half. The low end stands for greater potency, the high end for weaker potency.
